# How the values were obtained:
# Assay type in all cases: in vivo
# [1] = tested on: Cerambycid larvae; assay: Bolt study (Example 1): cerambycid larval feeding in loblolly pine bolts cut after trunk injection; details: for reduction of cerambycid feeding damage: May
# Protocol: (§1) Two 20-year-old, recently thinned loblolly pine plantations were selected on land owned by Temple-Inland Forest Products Corporation about 5 km south of Wells (Angelina County), Tex. Trees in one plantation were injected for use in a bolt study (Example 1). Trees in a 0.2 ha section of the second plantation were injected as part of a single-tree protection study (Example 2). A staging area also was set up in the second plantation where bolts from the first plantation were exposed to bark beetles and wood borers.
# Seventy-five loblolly pine trees, Pinus taeda L., 15-20 cm diameter at breast height (DBH), were selected in March 2004. Each treatment was injected into four cardinal points about 0.3 m above the ground on each of 15 trees in April (16th-23rd) using the new Arborjet Tree IV™ microinfusion system (Arborjet, Inc. Woburn, Mass.). The treatments included: • 1) Emamectin benzoate (Denim®, 1.92% ai, Syngenta Crop Science)—Denim® was mixed 1:1 with methanol and applied at 18.6 ml solution per inch of tree diameter at breast height (DBH) (=0.2 g active per inch DBH). • 2) Check (untreated)
# After 1 (May 24), 3 (July 19) and 5 (September) months post-injection, 5 trees of each treatment were felled and two 1.5 m long bolts were removed from the 3 m and 8 m heights of the bole. The bolts were transported to a nearby plantation that was recently thinned and contained fresh slash material. Each bolt was placed about 1 m apart on discarded, dry pine bolts to maximize surface area available for colonization as well as to discourage predation by ground and litter-inhabiting organisms. To facilitate timely bark beetle colonization, packets of bark beetle pheromones (racemic ipsdienol + lanerione combination, ipsenol or cis-verbenol; Phero Tech, Inc., Delta, BC, Canada) were attached separately to three 1 m stakes evenly spaced in the study area. Racemic ipsdienol and cis-verbenol were used with the second and third series of bolts deployed in July and September, respectively. The packets were removed after 2 weeks when signs of attacks (boring dust) were observed on most test bolts, signaling that naturally-produced pheromones were present.
# Each series of bolts were retrieved about 3 weeks after deployment, after observing many cerambycid egg niches on the bark surface of most bolts. There was concern that if cerambycid larvae were allowed to develop too long, their feeding activity would obscure or obliterate the Ips galleries. Thus, each series of bolts were retrieved and stored temporarily in a TFS seedling cooler (˜45° F.) to slow cerambycid development until the bolts could be evaluated.
# In the laboratory, two 10×50 cm strips (total=1000 cm^2) of bark were removed from each bolt. Several measurements were made relating to construction of nuptial chambers and egg galleries and development of brood: • 1) Number of unsuccessful attacks—penetration to phloem, but no egg galleries. • 2) Number of successful attacks—construction of nuptial chamber and at least one egg gallery extending from it. • 3) Number and lengths of egg galleries with brood galleries radiating from them. • 4) Number and lengths of egg galleries without brood galleries. • 5) Cerambycid activity, estimated by overlaying a 100 cm^2 grid over a portion of each bark strip and counting the number of squares overlapping area where cerambycid larvae had fed.
# Treatment efficacy was determined by comparing Ips beetle attacks and egg gallery length and cerambycid feeding on treated and untreated bolts. The data were transformed by log10(x+1) to satisfy criteria for normality and homoscedasticity (Zar 1984) and analyzed by GLM and the Fishers Protected LSD test using the Statview statistical program.
# [2] = tested on: Ips engravers beetles; assay: Single-tree protection study (Example 2): Ips attack, tree mortality and gallery construction on standing loblolly pine; details: for Mean # of Egg Galleries Total Number / Mean # of Egg Galleries With Brood No. / Mean # of Egg Galleries Without Brood No. / Mean Length of Egg Galleries Total Length / Mean Length of Egg Galleries With Brood cm / Mean Length of Egg Galleries Without Brood cm: bolts cut after tree mortality or at the end of the trial; for Mean # of Nuptial Chambers With Egg Galleries % of Total / Mean # of Nuptial Chambers Without Egg Galleries % of Total / Mean # of Nuptial Chambers Without Egg Galleries No. / Mean # of Nuptial Chambers with Egg Galleries No. / Mean Total # of Nuptial Chambers: bolts cut after tree mortality or the end of the trial
# Protocol: as §1
# (§2) Loblolly pine, 15-20 cm DBH, were selected in the second plantation in March 2004. Each treatment (the same as those used in Example 1) was injected into four cardinal points about 0.3 m above the ground on each of 6 trees in April (16th-23rd) using the Arborjet Tree IV™ system. After 5 weeks post-injection (May 28), frills were cut with a hatchet into the sapwood between the injection points near the base of the tree. A cellulose sponge was inserted into each cut and loaded with 10 ml of a 4:1 mix of sodium N-methyldithiocarbamate (MS) (Woodfume®; Osmose, Inc., Buffalo, N.Y.) plus dimethyl sulfoxide (DMSO) (Aldrich Chemical) (Roton 1987, Strom et al. 2004). This method reduces resin to near zero in 1-2 weeks. The intent was to stress the tree and make it susceptible to attack by bark beetles without killing it.
# Pheromone packets containing racemic ipsdienol + lanerione, ipsenol or cis-verbenol were attached (June 7) atop 3 m stakes evenly spaced in between and around the study trees to encourage attack by the three Ips engraver species. […] Thus, ipsdienol and cis-verbenol pheromone baits were deployed on all stakes on June 17th. The baits were changed every 4 weeks.
# A clear panel of acetate (10 cm wide by 25 cm long) coated with Stickem Special® was attached 2 m high on standing trees after deployment of pheromone baits to monitor arrival of bark beetles. The traps were left in place for two weeks.
# (§3) Three weeks after pheromone deployment (June 28), each tree was evaluated by marking a 30 cm section of bole at a height of 3 m. All visible Ips attacks and cerambycid egg niches were counted within the marked area. The number of trees with fading crowns also was recorded. Thereafter, the trees were evaluated weekly for crown fading. When mortality did occur, the trees were felled and two bolts taken and evaluated for attack success and gallery length as described in Example 1. All remaining trees were felled 66 days (Aug. 9) after initial pheromone deployment when no additional trees had died for 3 weeks. Treatment efficacy was determined by comparing tree survival, beetle attacks and egg gallery length on treated and untreated bolts. As before, data were transformed and analyzed by GLM and the Fisher's Protected LSD test using the Statview statistical program.
# [3] = tested on: cerambycids; assay: Single-tree protection study (Example 2): cerambycid attacks and larval feeding on standing loblolly pine; details: for Cerambycid Feeding Area: bolts cut after tree mortality or at the end of the trial
# Protocol: as §1
# as §2, with “it. […]” for “it.”
# as §3, with “All remaining trees were felled 66 days (Aug. 9) after initial pheromone deployment when no additional trees had died for 3 weeks.” left out
# [4] = standing loblolly pine, after 24 days
substance,measurement,setting,value
4″-deoxy-4″-N-methylamino avermectin B1a/B1b [Emamectin],Percent Phloem Area Consumed by Larvae,"[1]; 1 Month Post Injection (May), bolt height 3 m",2.2 a %
same,Percent Phloem Area Consumed by Larvae,"[1]; 1 Month Post Injection (May), bolt height 8 m",0.0 a %
same,Percent Phloem Area Consumed by Larvae,"[1]; 3 Months Post Injection (July), bolt height 3 m",0.0 a %
same,Percent Phloem Area Consumed by Larvae,"[1]; 3 Months Post Injection (July), bolt height 8 m",0.0 a %
same,Percent Phloem Area Consumed by Larvae,"[1]; 5 Months Post Injection (September), bolt height 3 m",0.0 a %
same,Percent Phloem Area Consumed by Larvae,"[1]; 5 Months Post Injection (September), bolt height 8 m",0.0 a %
same,cerambycid larval feeding or development,"[1]; July and September series, bolts from 3 m",no larval feeding or development
same,reduction of cerambycid feeding damage,[1]; bolts from 3 m,93%
same,reduction of cerambycid feeding damage,[1]; bolts from 8 m,100%
same,Percentage of Trees With Fading Crowns,[2]; after 24 days,0.0 a %
same,Percentage of Trees With Fading Crowns,[2]; after 32 days,0.0 a %
same,Percentage of Trees With Fading Crowns,[2]; after 39 days,0.0 a %
same,Percentage of Trees With Fading Crowns,[2]; after 46 days,0.0 a %
same,Percentage of Trees With Fading Crowns,[2]; after 52 days,0.0 a %
same,Percentage of Trees With Fading Crowns,[2]; after 66 days,0.0 a %
same,Mean # of Egg Galleries Total Number,[2]; bolt height 3 m,0.0 a
same,Mean # of Egg Galleries With Brood No.,[2]; bolt height 3 m,0.0 a
same,Mean # of Egg Galleries Without Brood No.,[2]; bolt height 3 m,0.0 a
same,Mean Length of Egg Galleries Total Length,[2]; bolt height 3 m,0.0 a cm
same,Mean Length of Egg Galleries With Brood cm,[2]; bolt height 3 m,0.0 a cm
same,Mean Length of Egg Galleries Without Brood cm,[2]; bolt height 3 m,0.0 a cm
same,Mean # of Egg Galleries Total Number,[2]; bolt height 8 m,0.0 a
same,Mean # of Egg Galleries With Brood No.,[2]; bolt height 8 m,0.0 a
same,Mean # of Egg Galleries Without Brood No.,[2]; bolt height 8 m,0.0 a
same,Mean Length of Egg Galleries Total Length,[2]; bolt height 8 m,0.0 a cm
same,Mean Length of Egg Galleries With Brood cm,[2]; bolt height 8 m,0.0 a cm
same,Mean Length of Egg Galleries Without Brood cm,[2]; bolt height 8 m,0.0 a cm
same,Mean # of Nuptial Chambers With Egg Galleries % of Total,[2]; bolt height 3 m,0.0%
same,Mean # of Nuptial Chambers Without Egg Galleries % of Total,[2]; bolt height 3 m,100.0%
same,Mean # of Nuptial Chambers Without Egg Galleries No.,[2]; bolt height 3 m,3.0 ab
same,Mean # of Nuptial Chambers with Egg Galleries No.,[2]; bolt height 3 m,0.0 a
same,Mean Total # of Nuptial Chambers,[2]; bolt height 3 m,3.0 a
same,Mean # of Nuptial Chambers With Egg Galleries % of Total,[2]; bolt height 8 m,0.0%
same,Mean # of Nuptial Chambers Without Egg Galleries % of Total,[2]; bolt height 8 m,100.0%
same,Mean # of Nuptial Chambers Without Egg Galleries No.,[2]; bolt height 8 m,1.3 ab
same,Mean # of Nuptial Chambers with Egg Galleries No.,[2]; bolt height 8 m,0.0 a
same,Mean Total # of Nuptial Chambers,[2]; bolt height 8 m,1.3 a
same,attacks on cut bolts compared to the check,"[2]; cut bolts, both heights",significantly fewer
same,success of attacks that did occur,"[2]; cut bolts, both heights",completely unsuccessful
same,"Mean # of Attacks/0.3 Bole Section at 3 m after 24 days, Ips",[2]; [4],0.5 a
same,Mean # of Ips caught/Trap,"[2]; standing loblolly pine, trap 2 m high",1.2 a
same,Ips attacks compared to checks,"[2]; standing trees, at 3 m height",significantly fewer
same,trees with fading crowns (yellowing needles),"[2]; standing trees, first evaluation",None
same,tree survival,"[2]; standing trees, study discontinued after 66 days",all emamectin benzoate-treated trees survived
same,Cerambycid Feeding Area,[3]; bolt height 3 m,0.0 a
same,Cerambycid Feeding Area,[3]; bolt height 8 m,0.0 a
same,"Mean # of Attacks/0.3 Bole Section at 3 m after 24 days, Cerambycid",[3]; [4],0.8 a
